According to patent US20070213312A1, “Hif-1 Inhibitors and Methods of Use Thereof” (priority 2003, published 2007):
Residues, ends and D or L forms follow the SMILES beside them. *: point of attachment. Cbz = O=C(OCc1ccccc1)*

How the values were obtained:
HIF-1α [1] = assay: HIF-1α detection in cells exposed to DBM plus metals (summary statements); format: cell-based, human; settings: cells exposed to DBM plus the metal; HEK 293 and HT144 for Zn^2+
Excerpt: In subsequent studies, similar data has been found for HEK 293 human embryonic kidney cells and HT144 melanoma cells treated with either DBM or Zn^2+. […] This finding appears to be unique to the combination of DBM with Zn^2+ since it was not observed in cells exposed to DBM plus other metals such as Fe^3+, Co^2+, Cd^2+, and Ni^2+. Furthermore, this unexpected reversal of the independent effects of DBM and Zn^2+ was not blocked by hypoxia. These observations are counterintuitive since inhibitors of HIF P4H should impede degradation of HIF-1α. Also, these two HIF P4H inhibitors appear to work in concert under inhibitory conditions to down-regulate HIF-1α with little effect on HIF-1α mRNA levels.
Basal levels of HIF-1α are low in cells exposed to ambient oxygen, yet under these conditions both DBM and Zn^2+ stabilize HIF-1α and cause the accumulation of HIF-1α protein (FIG. 15). It has been shown that this stabilizing effect on HIF-1α was itself reversed by the concomitant addition of Zn^2+ to DBM under ambient oxygen. […] This destabilizing effect appears unique to the combination of DBM plus Zn^2+ since it was not observed with other metals known to form chelates with DBM such as Fe^3+, Co^2+, Cd^2+ and Ni^2+. […] Though assessment of downstream effectors of HIF-1α (e.g., VEGF) was not included in the preliminary data, the effects of DBM and cobalt on VEGF in LNCaP human prostate cancer cells have been previously reported.

kidney cancer = settings: patients with metastatic disease, high doses; cited from earlier work
HIF-1α [2] = assay: Western blot analysis of HIF-1α in HT144 melanoma cells under hypoxia (1% O2); format: cell-based, human; settings: for HIF-1α levels by Western blot: HT 144 melanoma cells, 2 hours under 1% O2
Procedure: (§1) HT 144 melanoma cells (FIG. 16 (A)) and HEK 293 embryonic kidney cells (FIG. 16 (B)) were incubated for 2 hours under 1% O2. HIF-1α was detected by Western blot at baseline ([…] lane 1).

HIF-1α [3] = assay: Western blot analysis of HIF-1α in HEK 293 cells under hypoxia (1% O2); format: cell-based, human; settings: 2 hours under 1% O2, metal added together with DBM
Procedure: as §1

HIF-1α [4] = assay: Western blot analysis of HIF-1α in HEK 293 cells under ambient oxygen (normoxia); format: cell-based, human; settings: HEK 293, ambient oxygen; for HIF-1α levels by Western blot: 1 hr, DBM 100 μM, Zn^2+ 25 μM to 100 μM, alone or combined; for HIF-1α by Western blot: agent(s) without further addition; for HIF-1α by Western blot in the presence of proteosome inhibitor MG-132: MG-132 added to the agent(s)
Procedure: The first unexpected finding was that the combination of DBM plus Zn^2+ reversed the induced stabilization of HIF-1α observed when the cells were exposed to either DBM or Zn^2+ alone under normoxic conditions (FIG. 15). […] HIF-1α was not detected at baseline by Western blot (FIG. 15, lane 1).
Proteosomal degradation of HIF-1α was assessed in HEK 293 embryonic kidney cells treated with DBM alone, Zn^2+ alone or the combination under ambient oxygen in the presence or absence of the proteosome inhibitor MG-132 (FIG. 18). […] (FIG. 18, lane 5). […] The HIF-1α isoforms are more clearly resolved on the gel from FIG. 18 than FIG. 15. This may be due to differences in the time the gels were run.

HIF-1α mRNA = assay: Semiquantitative PCR (RT-PCR) of HIF-1α mRNA in HEK 293 cells under normoxia; format: cell-based, human; settings: HEK 293, normoxia, 2 hours, serum free media
Procedure: The effects of DBM alone, Zn^2+ alone and DBM plus Zn^2+ on HIF-1α mRNA levels were assessed by semiquantitative PCR in extracts of HEK 293 kidney cells under normoxia for 2 hours in serum free media (FIG. 17). […] HIF-1αZ mRNA levels were not found to be increased (data not shown).

HIF-1α [5] = settings: LNCaP cells, ambient O2; cited from earlier work
VEGF = settings: LNCaP cells, ambient O2; cited from earlier work
HIF-1αZ = settings: cited from earlier work
HIF-1α [6] = assay: Western blot analysis of HIF-1α in VHL (−/−) RCC-4 renal cell carcinoma cells under normoxia; format: cell-based, human; settings: RCC-4 VHL (−/−), normoxic conditions; MG-132 for 1 hour
Excerpt: As expected, HIF-1α was detected by Western blot under normoxic conditions (FIG. 19, lane 1). […] These experiments have not been performed as yet in RCC4 cells with DBM alone or in RCC4 cells transfected with pVHL.

## [Ni+2] [Ni^2+]
HIF-1α [1]
  Loss of HIF-1α (no HIF-1α detected) when metal is combined with DBM: not observed

## bevacizumab: humanized monoclonal antibody specific for VEGF
Kidney cancer
  Clinical responses: Clinical responses have been observed

## [Fe+3] [Fe^3+]
HIF-1α [2]; HT 144 cells, 2 hours under 1% O2, metal added together with DBM
  Effect of metal added to DBM on HIF-1α levels by Western blot: did not significantly alter the effect of DBM on HIF-1α levels
HIF-1α [3]
  Effect of metal added to DBM on HIF-1α levels by Western blot: decreased slower migrating isoforms of HIF-1α
HIF-1α [1]
  Loss of HIF-1α (no HIF-1α detected) when metal is combined with DBM: not observed

## O=C(CC(=O)c1ccccc1)c1ccccc1 [DBM, 1,3-diphenylpropane-1,3-dione]
HIF-1α [4]
  HIF-1α levels by Western blot: significant increase in HIF-1α levels
  HIF-1α by Western blot in the presence of proteosome inhibitor MG-132: did not stabilize these other forms of HIF-1α
HIF-1α [4]; 2 hours
  HIF-1α by Western blot: readily detected
HIF-1α [2]
  HIF-1α levels by Western blot: significantly increased the levels of HIF-1α
HIF-1α mRNA
  HIF-1α mRNA levels by semiquantitative PCR: not significantly different from baseline
HIF-1α [5]
  HIF-1α levels: rapidly increase
VEGF
  VEGF levels: rapidly increase

## [Zn+2] [Zn^2+]
HIF-1α [4]
  HIF-1α levels by Western blot: increased HIF-1α levels in a dose dependent manner
  HIF-1α by Western blot in the presence of proteosome inhibitor MG-132: did not stabilize these other forms of HIF-1α
HIF-1α [4]; 2 hours
  Molecular weight of stabilized HIF-1α isoforms: higher molecular weight than those induced by DBM
  HIF-1α by Western blot: readily detected
HIF-1α [2]
  HIF-1α levels by Western blot: decreased the more rapidly migrating isoforms of HIF-1α
HIF-1α mRNA
  HIF-1α mRNA levels by semiquantitative PCR: not significantly different from baseline
HIF-1αZ
  Zn^2+ concentration at which HIF-1αZ exhibits loss of exon 12: above 100 μM

## CC(C)C[C@@H](C=O)NC(=O)[C@H](CC(C)C)NC(=O)[C@H](CC(C)C)NC(=O)OCc1ccccc1 [MG-132, reference compound] (Cbz-Leu-Leu-Leu-aldehyde)
HIF-1α [4]; 2 hours
  HIF-1α by Western blot: accumulation of a broad range of proteins that possibly represent ubiquitinated forms of HIF-1α
HIF-1α [6]
  HIF-1α by Western blot: Stabilization of HIF-1α was enhanced

## [Cd+2] [Cd^2+]
HIF-1α [1]
  Loss of HIF-1α (no HIF-1α detected) when metal is combined with DBM: not observed

## [Co+2] [Co^2+, reference compound]
HIF-1α [1]
  Loss of HIF-1α (no HIF-1α detected) when metal is combined with DBM: not observed
HIF-1α [5]
  HIF-1α levels: rapidly increase
VEGF
  VEGF levels: rapidly increase
